Source: publication PMC10495491 (Parasitology Research, 2023)

How the values were obtained:
Vero cells = test: Cytotoxicity test (MTT) on Vero cells; type: cell-based, African green monkey; conditions: 24 h incubation
Protocol: (§1) Vero cells were seeded at a density of 1×10^4 cells/well in 96-well plate and incubated for 24 h at 37 °C in a 5% CO2 incubator. […] A stock solution in DMSO was initially prepared then diluted 100 times with culture media to obtain the highest concentration, then it was serially diluted. Three replicates for each drug concentration were performed. Cell viability was assayed by MTT method where 20 μl of 5 mg/ml MTT (Sigma, USA) was added to each well, and the plate was incubated at 37 °C for 3 h. Then, MTT solution was removed, 100 μl DMSO was added, and the absorbance of each well was measured using a Benchmark Microplate Reader (Bio Rad). […] [2021]; Montazeri et al. [2020]). Experiments were repeated three times. Vero cell growth suppression (%) was estimated using the following equation: […]×100 using CompuSyn software (version 1) (Chou [2006]; Chou and Talaly [1977]).

[1] = tested on: T. gondii RH strain tachyzoites; test: Transmission electron microscopy of intracellular tachyzoites in Vero cells; type: cell-based, Toxoplasma gondii RH strain; conditions: infected Vero cells treated with the IC50 of each compound for 24 h
Protocol: After confluence of Vero cells in four T-25 culture flasks, T. gondii RH strain tachyzoites, suspended in 5 ml of RPMI, and were added to each flasks in a ratio of 5:1 parasite-host cell (Diab and El-Bahy [2008]). Flasks were incubated for 2 h. After that, the cells were washed twice with culture media to remove extracellular parasites. The cells in culture flasks were incubated in 5 ml of culture media for 24 h at 37 °C in a 5% CO2 (Carvalho and De Melo [2010b]). […] For TEM (Jeol JSM-1400), trypsinization was followed by centrifugation at 2000g for 10 min, and the resulting pellet was fixed in buffered glutaraldehyde-phosphate 2.5% and stored at 4 °C until used (Shaw et al. [2002]). Then, the fixed specimens were washed thoroughly with Millonig phosphate buffer and post-fixed with buffered osmium tetroxide-phosphate. Following that, they were dehydrated in ascending concentrations of ethyl alcohol followed by embedding in epoxy resin. Finally, ultrathin sections were doubly stained with uranyl acetate and lead citrate trihydrate stains and examined under TEM (Winey et al. [2014]).

T. gondii tachyzoites = test: Effects of sulfa drugs on intracellular Toxoplasma gondii in Vero cells (MTT); type: cell-based, Toxoplasma gondii RH strain; conditions: 24 h treatment
Protocol: For this purpose, Vero cells were cultured in 96-well plates (1×10^4 cells/well) for 24 h in RPMI 1640 medium supplemented with 10% inactivated FBS at 37 °C and 5% CO2. Next, the cells were infected with T. gondii tachyzoites (parasite: cell ratio = 10:1). Four hours following the inoculation, the cells were washed twice with RPMI to remove any non-adherent parasites. […] Cell viability was assayed by MTT method. Twenty microliters of 5 mg/ml MTT (Sigma, USA) was added to each well and the plate was incubated at 37 °C for 3 h. Then, MTT solution was removed, 100 μl DMSO was added, and the absorbance of each well was measured using a Benchmark Microplate Reader (Bio Rad). The optical absorbance was measured at 570-nm wavelength. Growth inhibition (GI) was calculated as in the following equation: GI%=At-Ac/Ac×100
where At and Ac are the absorbance of treated cells and control, respectively. […] Selectivity index (SI) of the samples was calculated using the IC50 and the host-cell cytotoxicity profiles CC50 (SI = CC50/IC50) (Montazeri et al. [2020]) using CompuSyn software (version 1) (Chou [2006]; Chou and Talaly [1977]).

[2] = Cytotoxicity test (MTT) on Vero cells; type: cell-based, African green monkey; conditions: African green monkey, 24 h incubation
Protocol: as §1

tachyzoites = conditions: ref Portes et al. [2018]; cited from earlier work

## 4-(4-(hydroxymethyl)-1H-1,2,3-triazol-1-yl)-N-(pyridin-2-yl)benzenesulfonamide [3e]
Vero cells
  CC50: 510 ± 22 nM
[1]
  Ultrastructural alterations of intracellular tachyzoites (TEM): large PVs containing multiple vacuolated tachyzoites without nuclei or organelles
T. gondii tachyzoites
  IC50: 53.3 ± 10.5 nM

## Nc1ccc(S(=O)(=O)Nc2ncccn2)cc1 [Sulfadiazine, sulfadiazine]
[2]
  CC50 at 24 h: 1390 ± 100 nM
T. gondii tachyzoites; Toxoplasma gondii
  IC50: 185 ± 18.4 nM
tachyzoites
  Ultrastructural alterations in tachyzoites after treatment: no significant ultrastructural alterations
